Assay results from ChEMBL document CHEMBL4371079, “Improved synthesis, resolution, absolute configuration determination and biological evaluation of HLM006474 enantiomers” (Bioorg Med Chem Lett, 2019).
Activity calls are given as the source filed them. The calls are words filed in the database; no cut-off is given here.

What follows are compounds tested against Transcription factor E2F1 (Homo sapiens) (UniProt Q01094) (assay: Inhibition of E2F1 transcriptional activity (unknown origin) expressed in HEK293 cells at 10 uM measured after 48 hrs by luciferase reporter gene assay).
Sequence of Transcription factor E2F1 (Homo sapiens) (Q01094 whole entry): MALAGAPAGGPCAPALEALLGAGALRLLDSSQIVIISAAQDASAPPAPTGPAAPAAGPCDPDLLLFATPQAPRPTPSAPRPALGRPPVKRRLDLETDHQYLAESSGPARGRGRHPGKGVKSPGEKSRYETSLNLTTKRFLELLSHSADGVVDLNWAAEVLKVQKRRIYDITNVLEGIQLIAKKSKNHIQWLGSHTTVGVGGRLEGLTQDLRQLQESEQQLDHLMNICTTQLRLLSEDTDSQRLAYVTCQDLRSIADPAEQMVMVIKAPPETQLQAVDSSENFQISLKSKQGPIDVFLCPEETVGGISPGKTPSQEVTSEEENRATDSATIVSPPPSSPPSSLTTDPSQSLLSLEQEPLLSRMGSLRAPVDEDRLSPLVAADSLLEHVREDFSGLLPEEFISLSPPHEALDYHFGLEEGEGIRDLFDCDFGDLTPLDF
Format: cell-based

SMILES	inhibition
CCOc1ccc([C@H](Nc2ccccn2)c2ccc3ccc(C)nc3c2O)cc1C	inactive
CCOc1ccc(C(Nc2ccccn2)c2ccc3ccc(C)nc3c2O)cc1C (racemic)	Active
CCOc1ccc([C@@H](Nc2ccccn2)c2ccc3ccc(C)nc3c2O)cc1C	Active
